Results taken from patent US8815857B2 (Boehringer Ingelheim International GmbH, priority 2011, dated 2014).
In brackets after ≈: the same amount, converted by molar mass.

How the values were obtained:
[1] = target: T1, human soluble guanylate cyclase alpha 1 and beta 1 subunits (sGC) stably expressed in Chinese hamster ovary cells (Homo sapiens, UniProt Q02108+Q02153); assay: sGC cellular activator assay: cGMP in CHO cells expressing human sGC, preincubated with ODQ; assay type: cell-based; settings: 40 microM ODQ preincubation, 30 min at room temperature, presence or absence of 50% human serum not given, read-out: EC50 nM, Activity of Compounds in Cellular Assay
T1 construct: expressed in transfected cells; host or cells: Chinese hamster ovary cells, stably transfected
T1 sequence (Q02108 1-690 partner): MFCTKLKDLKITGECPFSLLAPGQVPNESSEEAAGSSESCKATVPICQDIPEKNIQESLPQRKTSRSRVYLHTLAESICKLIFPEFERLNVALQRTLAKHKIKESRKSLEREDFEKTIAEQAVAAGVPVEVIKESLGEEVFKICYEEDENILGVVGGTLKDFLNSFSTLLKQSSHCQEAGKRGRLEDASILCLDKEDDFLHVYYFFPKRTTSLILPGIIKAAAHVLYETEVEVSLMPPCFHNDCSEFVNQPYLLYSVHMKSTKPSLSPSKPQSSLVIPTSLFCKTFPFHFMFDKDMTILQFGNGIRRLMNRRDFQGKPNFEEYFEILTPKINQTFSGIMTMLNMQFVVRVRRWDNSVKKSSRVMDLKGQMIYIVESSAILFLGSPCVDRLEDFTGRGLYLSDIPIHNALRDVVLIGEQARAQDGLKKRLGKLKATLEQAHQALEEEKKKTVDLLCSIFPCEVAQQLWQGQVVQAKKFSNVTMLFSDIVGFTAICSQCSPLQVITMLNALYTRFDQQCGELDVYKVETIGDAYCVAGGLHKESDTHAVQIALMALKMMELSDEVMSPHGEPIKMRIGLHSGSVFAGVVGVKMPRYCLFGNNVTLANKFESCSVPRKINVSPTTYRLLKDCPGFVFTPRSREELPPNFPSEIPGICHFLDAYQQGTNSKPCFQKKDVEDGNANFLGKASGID
T1 sequence (Q02153 1-619): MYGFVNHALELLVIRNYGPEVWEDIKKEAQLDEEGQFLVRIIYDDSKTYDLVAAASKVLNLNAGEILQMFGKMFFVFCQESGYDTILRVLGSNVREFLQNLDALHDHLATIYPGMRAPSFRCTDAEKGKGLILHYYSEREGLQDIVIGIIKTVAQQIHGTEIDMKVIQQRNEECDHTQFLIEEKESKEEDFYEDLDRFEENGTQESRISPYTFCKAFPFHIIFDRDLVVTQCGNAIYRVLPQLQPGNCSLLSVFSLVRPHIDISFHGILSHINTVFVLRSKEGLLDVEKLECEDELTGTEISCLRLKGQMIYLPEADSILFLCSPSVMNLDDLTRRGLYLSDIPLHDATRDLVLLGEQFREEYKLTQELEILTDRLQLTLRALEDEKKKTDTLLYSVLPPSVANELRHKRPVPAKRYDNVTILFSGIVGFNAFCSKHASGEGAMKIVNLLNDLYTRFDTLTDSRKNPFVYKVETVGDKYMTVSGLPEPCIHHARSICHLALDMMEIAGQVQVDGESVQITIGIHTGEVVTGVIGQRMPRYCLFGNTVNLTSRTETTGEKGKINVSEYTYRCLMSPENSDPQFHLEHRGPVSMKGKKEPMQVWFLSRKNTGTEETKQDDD
Outline: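 EC50 values derive from HTRF cGMP measurement after test compounds act for thirty minutes at room temperature, with or without 50% human serum. Before dosing, the sGC-transfected CHO cells spend one hour with the inhibitor ODQ (40 microM) in IBMX- and 0.1% BSA-containing buffer.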

[2] = Assessment of solubility: HT solubility in pION buffer, UV spectrophotometry; settings: for solubility: kinetic from dmso stock
[3] = target: T2, Recombinant human soluble guanylate cyclase (sGC), alpha 1 / beta 1 subunits, heme-free (Homo sapiens, UniProt Q02108+Q02153); assay: Molecular assay: cGMP formation by heme-free recombinant sGC (CisBio cGMP detection kit); assay type: biochemical; settings: 300 pM heme-free sGC, 37° C., 60 min, cGMP readout; read-out: EC50 nM, Activity of Compounds in Molecular Assay
T2 construct: histidine tag (C); made in house; host or cells: Sf9 insect cells (baculovirus coinfection)
T2 sequence (Q02108 1-690 partner): T1 sequence (Q02108 1-690 partner)
T2 sequence (Q02153 1-619): T1 sequence (Q02153 1-619)
Outline: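 Heme-free His-tagged sGC (Sf9-expressed, Tween 20-treated lysate) at 300 pM incubated with compounds (1% DMSO) for 60 min at 37° C in MOPS pH 6.8 with 50 nM GTP, IBMX, TCEP. cGMP quantified by HTRF against calibration curve; EC50 from combined undiluted/diluted values.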

[4] = pION system solution buffer, pH 4.5, pH 4.5, aqueous buffer, Solubility (pH 4.5), pH 4.5 buffer, 16-19 h incubation, 1.0% DMSO
[5] = pION system solution buffer, pH 7.4, pH 7.4, aqueous buffer, Solubility (pH 7.4), pH 7.4 buffer, 16-19 h incubation, 1.0% DMSO
[6] = pH 6.8, aqueous buffer, Solubility (pH 6.8), pH 6.8

SMILES | EC50 [1] [nM] | solubility [2, 4] [µg/mL] | solubility [2, 5] [µg/mL] | EC50 [3] [nM] | solubility [2, 6] [µg/mL] | Solubility (pH 4.5) ([2]; pH 4.5 buffer, 16-19 h incubation, 1.0% DMSO) [μg/mL]
Cc1ccc(OCc2ccc(C(=O)N3CCCCC3)cc2C)c(-c2csc(N[C@@H]3CC[C@H](C(=O)O)C3)n2)c1 [Compound 239] | 650 | 2.7 (≈ 5.06 µM) | > 53 | 2900 | – | –
Cc1ccc(OCc2ccc(CN3CCOCC3)cc2OC(F)(F)F)c(-c2csc(N3CCC(C(=O)O)CC3)n2)c1 [Compound 277] | 16 | 21 (≈ 35.5 µM) | 41 (≈ 69.3 µM) | 74 | – | –
Cc1ccc(OCc2ccc(CN3CCOCC3)cc2C)c(-c2csc(N3CCC4(C(=O)O)CC4C3)n2)c1 (stereo not drawn) [Compound 218] | 18 | > 64 | 39 (≈ 73.1 µM) | 170 | – | –
Cc1ccc(OCc2ccc(CN3CCOCC3)cc2C)c(-c2csc(N3C[C@H]4C[C@@H](C3)[C@H]4C(=O)O)n2)c1 [Compound 237] | 130 | > 53 | > 53 | 240 | – | –
Cc1cc(CN2CCS(=O)(=O)CC2)ccc1COc1ccc(F)cc1-c1csc(N2CC3CCC(C2)C3C(=O)O)n1 (stereo not drawn) [Compound 275] | 670 | 0.6 (≈ 1 µM) | 4 (≈ 6.67 µM) | 1800 | – | –
Cc1ccc(OCc2ccc(C(=O)N3CCCCC3)cc2C)c(-c2csc(N3C[C@H]4CC[C@@H](C3)[C@@]4(C)C(=O)O)n2)c1 [Compound 214] | 15 | < 0.1 | 21 (≈ 36.6 µM) | 22 | 51 (≈ 88.9 µM) | –
Cc1cc(CN2CCS(=O)(=O)CC2)ccc1COc1ccc(C#N)cc1-c1csc(N2CCC(C(=O)O)CC2)n1 [Compound 273] | 570 | 7.3 (≈ 12.6 µM) | > 82 | 320 | – | –
Cc1cc(CN2CCS(=O)(=O)CC2)ccc1COc1c(C)cccc1-c1csc(N2C3CCC2CC(C(=O)O)C3)n1 (stereo not drawn) [Compound 205] | 200 | 9.5 (≈ 15.9 µM) | > 59 | 80 | – | –
Cc1cc(CN2CCS(=O)(=O)CC2)ccc1COc1ccc(Cl)cc1-c1csc(N2CC3CCC(C2)C3C(=O)O)n1 (stereo not drawn) [Compound 211] | 190 | 1.4 (≈ 2.27 µM) | 17 (≈ 27.6 µM) | 370 | – | –
Cc1cc(C(=O)N2CCCCC2)ccc1COc1ccc(C#N)cc1-c1csc(N2CCC(C(=O)O)CC2)n1 [Compound 274] | 600 | 0.95 (≈ 1.74 µM) | > 54 | 1600 | – | –
Cc1ccc(OCc2ccc(CN3CCN4CCCC4C3)cc2C)c(-c2csc(N3CCC(C(=O)O)CC3)n2)c1 (stereo not drawn) [Compound 350] | 170 | > 56 | > 56 | 260 | – | –
Cc1ccc(OCc2ccc(CN3CCN(C(=O)C4CC4)CC3)cc2C#N)c(-c2csc(N3CCC(C(=O)O)CC3)n2)c1 [Compound 352] | 76 | 22 (≈ 36.7 µM) | > 59 | 14 | – | –
Cc1cc(CN2CCS(=O)(=O)CC2)ccc1COc1ccc(Cl)cc1-c1csc(N2C3CCC2CC(C(=O)O)C3)n1 (stereo not drawn) [Compound 207] | 93 | 0.95 (≈ 1.54 µM) | 30 (≈ 48.7 µM) | 170 | – | –
Cc1ccc(OCc2ccc(CN3CCS(=O)(=O)CC3)cc2C)c(-c2csc(N3CCCC(C(=O)O)CC3)n2)c1 (stereo not drawn) [Compound 234] | 7.9 | 3.3 (≈ 5.65 µM) | > 58 | 6 | – | –
Cc1cc(C(=O)N2CCCCC2)ccc1COc1c(C)cccc1-c1csc(N2C3CCC2CC(C(=O)O)C3)n1 (stereo not drawn) [Compound 209] | 96 | 5.1 (≈ 9.11 µM) | > 55 | 270 | – | –
Cc1ccc(OCc2ccc(CN3CCS(=O)(=O)CC3)cc2C)c(-c2csc(N3CCC(C(=O)O)C(C)C3)n2)c1 (stereo not drawn) [Compound 204] | 17 | 0.35 (≈ 0.6 µM) | 54 (≈ 92.5 µM) | 28 | – | –
Cc1cc(CN2CCOCC2)ccc1COc1c(C)cccc1-c1csc(N2C3CCC2CC(C(=O)O)C3)n1 (stereo not drawn) [Compound 210] | 430 | > 58 | > 58 | 350 | – | –
Cc1cc(CN2CCOCC2)ccc1COc1c(C)cccc1-c1csc(N2C[C@H]3CC[C@@H](C2)[C@H]3C(=O)O)n1 [Compound 206] | 88 | > 58 | > 58 | 170 | – | –
Cc1cc(C(=O)N2CCCCC2)ccc1COc1c(C)cccc1-c1csc(N2C[C@H]3CC[C@@H](C2)[C@H]3C(=O)O)n1 [Compound 208] | 39 | 0.3 (≈ 0.536 µM) | > 55 | 250 | – | –
Cc1ccc(OCc2ccc(CN3CCC(F)CC3)cc2C)c(-c2csc(N3CCC(C(=O)O)CC3)n2)c1 [Compound 353] | 140 | > 53 | 38 (≈ 70.7 µM) | 470 | – | –
Cc1cc(C(=O)N2CCCCC2)ccc1COc1ccc(Cl)cc1-c1csc(N2CCC(C(=O)O)CC2)n1 [Compound 271] | 19 | 3.7 (≈ 6.68 µM) | 21 (≈ 37.9 µM) | 45 | – | –
Cc1ccc(OCc2ccc(CN3CCS(=O)(=O)CC3)cc2C)c(-c2csc(N3C[C@H]4C[C@@H](C3)[C@H]4C(=O)O)n2)c1 [Compound 235] | 57 | 8.1 (≈ 13.9 µM) | > 58 | 47 | – | –
COCCN(C)C(=O)c1ccc(COc2ccc(C)cc2-c2csc(N3C[C@H]4CC[C@@H](C3)[C@H]4C(=O)O)n2)c(C)c1 [Compound 344] | 23 | – | > 58 | – | 61 (≈ 108 µM) | 0.1
Cc1ccc(OCc2ccc(CN3CCN(C(C)C)C(=O)C3)cc2C)c(-c2csc(N3CC4CCC(C3)C4C(=O)O)n2)c1 (stereo not drawn) [Compound 293] | 29 | < 0.1 | – | – | 3.4 (≈ 5.64 µM) | –
